Data on eight molecules can be found in ChEMBL document CHEMBL1135148, “Synthesis and profile of SCH351591, a novel PDE4 inhibitor” (Bioorg Med Chem Lett, 2002).

Data set [1] deals with Phosphodiesterase 4 (Rattus norvegicus, UniProt P14270+P14646+P14644+P54748). Briefly: Inhibition of rolipram binding to PDE4 of rat brain.
Data set [2] deals with T1, Phosphodiesterase 4 (Homo sapiens, UniProt P27815+Q08499+Q07343+Q08493). Briefly: Relative inhibition of phosphodiesterase 4 and rolipram binding. The class given is protein assay.
Data set [3] deals with T1, Phosphodiesterase 4. Briefly: Inhibition of Phosphodiesterase 4 from human U937 cells. The class given is cell-based. Particulars: u-937.
Data set [4] in a line: Cmax in guinea pig after 3mg/kg oral dose. The class given is ADME, organism-based, Cavia porcellus. More on the design: dose 3 mg/kg, route oral. Particulars: in vivo.
Data set [5] can be described thus: AUC in guinea pig after 3mg/kg oral dose. The class given is ADME, organism-based, Cavia porcellus, Plasma.
The nature of data set [6]: AUC in rat after 3mg/kg oral dose. The class given is ADME, organism-based. The conditions noted are these: plasma.
Data set [7] in a line: Cmax in rat after 3mg/kg oral dose. The class given is ADME, organism-based. More on the design: dose 3 mg/kg, route oral. The conditions noted are these: in vivo.
Data set [8] concerns the target Phosphodiesterase 7 (Homo sapiens) (UniProt Q13946+Q9NP56). In words: Inhibition of Phosphodiesterase 7 from human T-lymphocyte cell line. The conditions noted are these: concentration not given here.
In data set [9] the target is Phosphodiesterase 3 (Homo sapiens) (UniProt Q14432+Q13370). In words: Inhibition of Phosphodiesterase 3 from human platelets. The conditions noted are these: concentration not given here.
For data set [10], the target named is Phosphodiesterase 1 (Homo sapiens) (UniProt P54750+Q01064+Q14123). In words: Inhibition of recombinant Phosphodiesterase 1. Particulars: concentration not given here. The class given is protein assay.
Data set [11] has as its target cGMP-specific 3',5'-cyclic phosphodiesterase (Homo sapiens) (UniProt O76074). Briefly: Inhibition of Phosphodiesterase 5 from human platelets. The conditions noted are these: concentration not given here.
Data set [12] concerns the target cGMP-dependent 3',5'-cyclic phosphodiesterase (Homo sapiens) (UniProt O00408). In words: Inhibition of Phosphodiesterase 2. Particulars: concentration not given here.
In data set [13] the target is T1, Phosphodiesterase 4. Briefly: Inhibition of Phosphodiesterase 4. The class given is protein assay.

cGMP-dependent 3',5'-cyclic phosphodiesterase (Homo sapiens), sequence (O00408 whole entry): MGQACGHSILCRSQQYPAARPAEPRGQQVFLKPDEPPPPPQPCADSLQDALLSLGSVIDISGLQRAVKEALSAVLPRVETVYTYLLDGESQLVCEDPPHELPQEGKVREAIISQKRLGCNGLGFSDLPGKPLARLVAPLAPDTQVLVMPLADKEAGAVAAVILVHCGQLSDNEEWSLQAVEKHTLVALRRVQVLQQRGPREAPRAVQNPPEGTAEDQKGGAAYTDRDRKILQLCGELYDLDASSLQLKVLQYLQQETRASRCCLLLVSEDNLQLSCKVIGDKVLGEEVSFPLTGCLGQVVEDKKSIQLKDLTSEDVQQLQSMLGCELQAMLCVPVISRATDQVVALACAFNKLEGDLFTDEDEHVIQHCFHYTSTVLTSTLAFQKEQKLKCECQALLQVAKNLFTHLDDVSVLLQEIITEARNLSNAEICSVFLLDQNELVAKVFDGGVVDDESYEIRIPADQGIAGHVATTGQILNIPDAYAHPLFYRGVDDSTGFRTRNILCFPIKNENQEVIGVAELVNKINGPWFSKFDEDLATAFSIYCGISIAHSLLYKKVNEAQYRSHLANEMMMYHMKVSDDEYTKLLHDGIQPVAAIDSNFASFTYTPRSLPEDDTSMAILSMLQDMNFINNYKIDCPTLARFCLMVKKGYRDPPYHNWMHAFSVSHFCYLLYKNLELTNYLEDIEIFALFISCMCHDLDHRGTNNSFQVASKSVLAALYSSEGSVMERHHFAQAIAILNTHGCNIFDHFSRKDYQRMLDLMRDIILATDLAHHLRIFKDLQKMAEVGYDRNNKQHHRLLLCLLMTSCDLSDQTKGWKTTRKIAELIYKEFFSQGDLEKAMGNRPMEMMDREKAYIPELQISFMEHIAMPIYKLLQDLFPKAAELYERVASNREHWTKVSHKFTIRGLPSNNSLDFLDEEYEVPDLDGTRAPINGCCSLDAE
Phosphodiesterase 7 (Homo sapiens), sequence (Q13946 whole entry, looked up): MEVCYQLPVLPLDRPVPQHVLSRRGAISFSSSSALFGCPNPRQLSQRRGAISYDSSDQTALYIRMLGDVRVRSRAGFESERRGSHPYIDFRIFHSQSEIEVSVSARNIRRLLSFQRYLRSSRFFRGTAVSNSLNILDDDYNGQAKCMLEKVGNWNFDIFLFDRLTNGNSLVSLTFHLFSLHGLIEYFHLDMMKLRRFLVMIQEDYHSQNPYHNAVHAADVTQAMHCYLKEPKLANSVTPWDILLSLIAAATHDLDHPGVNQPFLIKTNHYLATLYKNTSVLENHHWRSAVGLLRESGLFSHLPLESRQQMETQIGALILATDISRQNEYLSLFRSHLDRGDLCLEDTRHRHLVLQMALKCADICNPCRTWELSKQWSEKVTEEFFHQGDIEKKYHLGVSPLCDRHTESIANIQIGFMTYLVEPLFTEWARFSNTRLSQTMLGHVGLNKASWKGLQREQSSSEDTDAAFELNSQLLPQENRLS
Phosphodiesterase 7 (Homo sapiens), sequence (Q9NP56 whole entry, looked up): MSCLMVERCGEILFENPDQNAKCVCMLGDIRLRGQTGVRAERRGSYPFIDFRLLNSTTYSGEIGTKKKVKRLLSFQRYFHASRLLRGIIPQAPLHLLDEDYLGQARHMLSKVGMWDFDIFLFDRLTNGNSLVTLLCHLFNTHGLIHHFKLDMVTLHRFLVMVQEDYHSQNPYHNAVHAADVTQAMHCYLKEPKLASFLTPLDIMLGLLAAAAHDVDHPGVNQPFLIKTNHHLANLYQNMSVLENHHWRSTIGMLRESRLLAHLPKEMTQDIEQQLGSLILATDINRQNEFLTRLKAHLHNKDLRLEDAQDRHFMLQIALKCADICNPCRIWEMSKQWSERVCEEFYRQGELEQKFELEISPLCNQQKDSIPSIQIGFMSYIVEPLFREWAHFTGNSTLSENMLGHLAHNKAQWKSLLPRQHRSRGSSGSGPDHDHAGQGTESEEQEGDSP

`COc1ccc(C(=O)Nc2c(F)cncc2F)c2ccc(C(F)(F)F)nc12`: the figures for the concentration for half-maximal inhibition (IC50) on Phosphodiesterase 4 [1] and against Phosphodiesterase 4 [3] were 0.038 µM and 0.035 µM, respectively. Also, the Ratio at Phosphodiesterase 4 [2] was 0.94.
In the same order, the values of `COc1ccc(C(=O)Nc2ccncc2Cl)c2ccc(C(F)(F)F)nc12` are 0.11 µM, 1.12 µM and 10.
In the case of `COc1ccc(C(=O)Nc2c(Cl)cncc2Cl)c2ccc(C(F)(F)F)nc12`, the peak level in data set [4] (Cmax) was 380 ng/mL. Also, the AUC (commonly concentration integrated over time) in data set [5] (in vivo) was 1174 ng·h/mL; in data set [5] (plasma, read-out: AUC) it was 1170 ng·h/mL; in data set [6], 6860 ng·h/mL. Also, the IC50 (usually the point on the concentration scale where inhibition reaches its midpoint) on Phosphodiesterase 4 [1] amounted to 0.077 µM. Also, the Ratio at Phosphodiesterase 4 [2] turned out to be 0.66.
As to `COc1ccc(C(=O)Nc2c(Cl)c[n+]([O-])cc2Cl)c2ccc(C(F)(F)F)nc12` [SCH-351591], the results for the Cmax in data set [4] and in data set [7] were 1390 ng/mL and 3060 ng/mL, respectively. Also, the AUC was found to be 15757 ng·h/mL in data set [5] (in vivo); 15800 ng·h/mL in data set [5] (plasma, read-out: AUC); 50500 ng·h/mL in [6]. Besides, the inhibition (usually the share of the control response that was lost under treatment) in data set [8] worked out at 10%; in data set [9], 31%; in data set [10] it was 15%; in [11], 5%; in data set [12], 0%. Further, the figures for the IC50 on Phosphodiesterase 4 [1], on Phosphodiesterase 4 [3] and against Phosphodiesterase 4 [13] were 0.15 µM, 0.06 µM and 0.06 µM, respectively. Further, the Ratio at Phosphodiesterase 4 [2] came out at 0.4.
Turning to `COc1ccc(C(=O)Nc2c(C)c[n+]([O-])cc2C)c2ccc(C(F)(F)F)nc12`, the values for the concentration for half-maximal inhibition (IC50) at Phosphodiesterase 4 [1] and against Phosphodiesterase 4 [3] were 0.38 µM and 0.15 µM, respectively. Further, on Phosphodiesterase 4 [2], the Ratio was found to be 0.39.
In the same order, the values of `COc1ccc(C(=O)Nc2c(F)c[n+]([O-])cc2F)c2ccc(C(F)(F)F)nc12` are 0.06 µM, 0.07 µM and 1.17.
On the same counts, the results for `COc1ccc(C(=O)Nc2c(C)cncc2C)c2ccc(C(F)(F)F)nc12` are 0.058 µM, 0.12 µM and 2.1.
On the same counts, the results for `COc1ccc(C(=O)Nc2cc[n+]([O-])cc2Cl)c2ccc(C(F)(F)F)nc12` are 0.37 µM, 0.24 µM and 0.65.
